Data: US10077265B2, “Substituted oxopyridine derivatives” (BAYER PHARMA AKTIENGESELLSCHAFT, priority 2014, dated 2018)

Each compound was assayed against human plasma kallikrein (Homo sapiens (Human), UniProt P03952) (assay: Determination of the plasma kallikrein activity (fluorogenic peptide substrate)). Details: plasma kallikrein from Kordia, substrate H-Pro-Phe-Arg-AMC, 30 min at 22° C.
Assay type: biochemical
Description: To determine the plasma kallikrein inhibition of the substances according to the invention, a biochemical test system is used which utilizes the reaction of a peptidic plasma kallikrein substrate to determine the enzymatic activity of human plasma kallikrein. Here, plasma kallikrein cleaves from the peptic plasma kallikrein substrate the C-terminal aminomethylcoumarin (AMC), the fluorescence of which is measured. The determinations are carried out in microtitre plates.
1 μl of the diluted substance solutions is placed into each of the wells of white microtitre plates from Greiner (384 wells). 20 μl of assay buffer (50 mM Tris/HCl pH 7.4; 100 mM sodium chloride solution; 5 mM of calcium chloride solution; 0.1% of bovine serum albumin) and 20 μl of plasma kallikrein from Kordia (0.6 nM in assay buffer) are then added successively. After 15 min of incubation, the enzyme reaction is started by addition of 20 μl of the substrate H-Pro-Phe-Arg-AMC dissolved in assay buffer (10 μM in assay buffer) from Bachem, the mixture is incubated at room temperature (22° C.) for 30 min and fluorescence is then measured (excitation: 360 nm, emission: 460 nm). The measured emissions of the test batches with test substance are compared to those of control batches without test substance (only dimethyl sulphoxide instead of test substance in dimethyl sulphoxide), and IC50 values are calculated from the concentration/activity relationships.

human plasma kallikrein, sequence (P03952 391-638): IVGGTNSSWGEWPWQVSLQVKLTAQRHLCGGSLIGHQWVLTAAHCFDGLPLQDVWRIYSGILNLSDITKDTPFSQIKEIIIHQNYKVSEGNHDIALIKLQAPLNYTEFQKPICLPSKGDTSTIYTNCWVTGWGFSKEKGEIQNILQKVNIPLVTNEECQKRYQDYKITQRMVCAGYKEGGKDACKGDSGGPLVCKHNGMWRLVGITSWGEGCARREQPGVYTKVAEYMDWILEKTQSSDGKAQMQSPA
human plasma kallikrein, sequence (P03952 20-390 partner): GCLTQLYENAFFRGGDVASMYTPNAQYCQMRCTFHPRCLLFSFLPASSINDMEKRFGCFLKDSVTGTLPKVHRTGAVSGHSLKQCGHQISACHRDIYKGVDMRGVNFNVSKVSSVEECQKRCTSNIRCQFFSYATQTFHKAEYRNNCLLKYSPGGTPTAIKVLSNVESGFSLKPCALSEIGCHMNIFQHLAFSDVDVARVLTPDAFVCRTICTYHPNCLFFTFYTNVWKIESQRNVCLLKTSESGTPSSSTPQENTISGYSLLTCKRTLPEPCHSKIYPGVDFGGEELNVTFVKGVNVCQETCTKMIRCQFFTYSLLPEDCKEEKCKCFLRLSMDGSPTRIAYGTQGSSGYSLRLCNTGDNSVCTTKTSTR

Structure (SMILES) | IC50
COCCNC(=O)c1cnn2ccc(NC(=O)C(CCOC)n3cc(OC)c(-c4cc(Cl)ccc4C#N)cc3=O)cc12 (racemic) [Example 8, 5-({2-[4-(5-Chloro-2-cyanophenyl)-5-methoxy-2-oxopyridin-1(2H)-yl]-4-methoxybutanoyl}amino)-N-(2-methoxyethyl)pyrazolo[1,5-a]pyridine-3-carboxamide (racemate)] | 3.8 nM
COCCCNC(=O)c1cnn2ccc(NC(=O)C(CCOC)n3cc(OC)c(-c4cc(Cl)ccc4C#N)cc3=O)cc12 (racemic) [Example 9, 5-({2-[4-(5-Chloro-2-cyanophenyl)-5-methoxy-2-oxopyridin-1(2H)-yl]-4-methoxybutanoyl}amino)-N-(3-methoxypropyl)pyrazolo[1,5-a]pyridine-3-carboxamide (racemate)] | 3 nM
COCCC(C(=O)Nc1ccn2ncc(C(=O)NCCOC(F)(F)F)c2c1)n1cc(OC)c(-c2cc(Cl)ccc2C#N)cc1=O (racemic) [Example 10, 5-({2-[4-(5-Chloro-2-cyanophenyl)-5-methoxy-2-oxopyridin-1(2H)-yl]-4-methoxybutanoyl}amino)-N-[2-(trifluoromethoxy)ethyl]pyrazolo[1,5-a]pyridine-3-carboxamide (racemate)] | 9.5 nM
COCCC(C(=O)Nc1ccn2ncc(C(=O)NCCC(F)(F)F)c2c1)n1cc(OC)c(-c2cc(Cl)ccc2C#N)cc1=O (racemic) [Example 11, 5-({2-[4-(5-Chloro-2-cyanophenyl)-5-methoxy-2-oxopyridin-1(2H)-yl]-4-methoxybutanoyl}amino)-N-(3,3,3-trifluoropropyl)pyrazolo[1,5-a]pyridine-3-carboxamide (racemate)] | 6.6 nM
COCCC(C(=O)Nc1ccn2ncc(C(=O)NCC(F)(F)F)c2c1)n1cc(OC)c(-c2cc(Cl)ccc2C#N)cc1=O (racemic) [Example 12, 5-({2-[4-(5-Chloro-2-cyanophenyl)-5-methoxy-2-oxopyridin-1(2H)-yl]-4-methoxybutanoyl}amino)-N-(2,2,2-trifluoroethyl)pyrazolo[1,5-a]pyridine-3-carboxamide (racemate)] | 5 nM
COCCC(C(=O)Nc1ccn2ncc(C(=O)NCCCO)c2c1)n1cc(OC)c(-c2cc(Cl)ccc2C#N)cc1=O (racemic) [Example 13, 5-({2-[4-(5-Chloro-2-cyanophenyl)-5-methoxy-2-oxopyridin-1(2H)-yl]-4-methoxybutanoyl}amino)-N-(3-hydroxypropyl)pyrazolo[1,5-a]pyridine-3-carboxamide (racemate)] | 5.2 nM

Now from value to compound:

IC50 | Structure (SMILES)
5 nM | CCC(C(=O)Nc1ccn2ncc(C(=O)O)c2c1)n1cc(OC)c(-c2cc(Cl)ccc2C#N)cc1=O (racemic) [Example 1, 5-({2-[4-(5-Chloro-2-cyanophenyl)-5-methoxy-2-oxopyridin-1(2H)-yl]butanoyl}amino)pyrazolo-[1,5-a]pyridine-3-carboxylic acid (racemate)]
2.5 nM | COCCC(C(=O)Nc1ccn2ncc(C(=O)O)c2c1)n1cc(OC)c(-c2cc(Cl)ccc2C#N)cc1=O (racemic) [Example 2, 5-({2-[4-(5-Chloro-2-cyanophenyl)-5-methoxy-2-oxopyridin-1(2H)-yl]-4-methoxybutanoyl}-amino)pyrazolo[1,5-a]pyridine-3-carboxylic acid (racemate)]
18 nM | COCCC(C(=O)Nc1ccn2ncc(C(=O)N(C)C)c2c1)n1cc(OC)c(-c2cc(Cl)ccc2C#N)cc1=O (racemic) [Example 6, 5-({2-[4-(5-Chloro-2-cyanophenyl)-5-methoxy-2-oxopyridin-1(2H)-yl]-4-methoxybutanoyl}amino)-N,N-dimethylpyrazolo[1,5-a]pyridine-3-carboxamide (racemate)]
6.4 nM | CCCNC(=O)c1cnn2ccc(NC(=O)C(CCOC)n3cc(OC)c(-c4cc(Cl)ccc4C#N)cc3=O)cc12 (racemic) [Example 7, 5-({2-[4-(5-Chloro-2-cyanophenyl)-5-methoxy-2-oxopyridin-1(2H)-yl]-4-methoxybutanoyl}amino)-N-propylpyrazolo[1,5-a]pyridine-3-carboxamide (racemate)]
3.8 nM | COCCC(C(=O)Nc1ccn2ncc(C(=O)NCCO)c2c1)n1cc(OC)c(-c2cc(Cl)ccc2C#N)cc1=O (racemic) [Example 14, 5-({2-[4-(5-Chloro-2-cyanophenyl)-5-methoxy-2-oxopyridin-1(2H)-yl]-4-methoxybutanoyl}amino)-N-(2-hydroxyethyl)pyrazolo[1,5-a]pyridine-3-carboxamide (racemate)]
